Laboratory results taken from ChEMBL document CHEMBL5046309, “Discovery of SHR5133, a Highly Potent and Novel HBV Capsid Assembly Modulator” (ACS Med Chem Lett, 2022).
Converted amounts (≈) assume the structure as drawn. The source made the active and inactive calls. The calls are words filed in the database; no cut-off is given here.

Experiments:
HepG2 2.2.15 = assay: Cytotoxicity against human HepG2.2.15 cells assessed as reduction in cell viability incubated for 72 hrs by cell titer-glo assay; type: functional
[1] = Clearance in nude mouse at 1 mg/kg, iv measured up to 24 hrs by LC-MS/MS analysis; type: ADME, organism-based; settings: in vivo
[2] = AUC(0 to 24 hrs) in Beagle dog at 0.5 mg/kg, po measured up to 24 hrs by LC-MS/MS analysis; type: ADME, organism-based, Canis lupus familiaris; parameters: route oral, dose 0.5 mg/kg, time <=24; settings: in vivo
[3] = Cmax in nude mouse at 100 mg/kg, po measured up to 24 hrs by LC-MS/MS analysis; type: ADME, organism-based; parameters: route oral, dose 100 mg/kg, time <=24; settings: in vivo
Hepatitis B virus [4] = assay: Antiviral activity against HBV infected in C57BL/6 mouse assessed as reduction on HBeAg level at 3 to 30 mg/kg,po BID for 28 days by ELISA; type: functional, organism-based; settings: dose 3-30 mg/kg, time 28.0 day
Cytochrome P450 1A2 = biological target: T1, Cytochrome P450 1A2 (Homo sapiens, UniProt P05177); assay: Inhibition of recombinant human CYP1A2 by LC-MS/MS analysis; type: ADME
T1 sequence (P05177 whole entry): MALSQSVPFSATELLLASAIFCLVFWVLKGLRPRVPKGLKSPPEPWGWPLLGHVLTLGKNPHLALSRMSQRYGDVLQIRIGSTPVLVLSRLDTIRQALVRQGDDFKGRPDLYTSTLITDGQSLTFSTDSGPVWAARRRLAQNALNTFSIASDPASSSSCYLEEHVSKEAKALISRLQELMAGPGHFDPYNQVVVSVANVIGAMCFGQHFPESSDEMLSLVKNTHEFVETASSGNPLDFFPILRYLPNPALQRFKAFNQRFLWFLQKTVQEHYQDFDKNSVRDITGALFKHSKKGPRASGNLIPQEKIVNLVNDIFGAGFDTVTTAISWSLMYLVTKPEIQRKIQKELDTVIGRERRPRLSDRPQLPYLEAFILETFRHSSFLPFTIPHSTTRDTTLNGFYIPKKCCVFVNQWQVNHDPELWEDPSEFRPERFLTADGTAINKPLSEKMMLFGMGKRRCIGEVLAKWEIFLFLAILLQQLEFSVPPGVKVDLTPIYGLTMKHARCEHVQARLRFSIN

[5] = Lipophilicity, logD of compound at pH 7.4 by LC-MS/MS analysis; type: physicochemical; settings: buffer
Cytochrome P450 2C19 = Cytochrome P450 2C19 (Homo sapiens, UniProt P33261); assay: Inhibition of recombinant human CYP2C19 by LC-MS/MS analysis; type: ADME
Chain of Cytochrome P450 2C19 (P33261 whole entry): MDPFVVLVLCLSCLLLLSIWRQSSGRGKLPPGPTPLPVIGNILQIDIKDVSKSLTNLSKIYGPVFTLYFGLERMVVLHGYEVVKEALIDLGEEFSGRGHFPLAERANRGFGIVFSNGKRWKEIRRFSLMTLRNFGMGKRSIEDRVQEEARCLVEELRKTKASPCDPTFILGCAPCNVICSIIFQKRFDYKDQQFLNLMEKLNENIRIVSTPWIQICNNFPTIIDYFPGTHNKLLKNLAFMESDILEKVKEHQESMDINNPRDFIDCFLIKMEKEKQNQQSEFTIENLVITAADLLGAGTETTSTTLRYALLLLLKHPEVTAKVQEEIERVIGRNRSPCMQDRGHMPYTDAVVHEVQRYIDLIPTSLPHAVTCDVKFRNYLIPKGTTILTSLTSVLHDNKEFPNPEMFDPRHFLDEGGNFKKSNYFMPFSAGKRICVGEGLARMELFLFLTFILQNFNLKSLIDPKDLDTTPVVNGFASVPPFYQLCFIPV

[6] = Half life in nude mouse at 10 mg/kg, po measured up to 24 hrs by LC-MS/MS analysis; type: ADME, organism-based; settings: in vivo
[7] = biological target: Voltage-gated inwardly rectifying potassium channel KCNH2 (Homo sapiens, UniProt Q12809); assay: Inhibition of human ERG by LC-MS/MS analysis; type: toxicity
Chain of Voltage-gated inwardly rectifying potassium channel KCNH2 (Q12809 whole entry): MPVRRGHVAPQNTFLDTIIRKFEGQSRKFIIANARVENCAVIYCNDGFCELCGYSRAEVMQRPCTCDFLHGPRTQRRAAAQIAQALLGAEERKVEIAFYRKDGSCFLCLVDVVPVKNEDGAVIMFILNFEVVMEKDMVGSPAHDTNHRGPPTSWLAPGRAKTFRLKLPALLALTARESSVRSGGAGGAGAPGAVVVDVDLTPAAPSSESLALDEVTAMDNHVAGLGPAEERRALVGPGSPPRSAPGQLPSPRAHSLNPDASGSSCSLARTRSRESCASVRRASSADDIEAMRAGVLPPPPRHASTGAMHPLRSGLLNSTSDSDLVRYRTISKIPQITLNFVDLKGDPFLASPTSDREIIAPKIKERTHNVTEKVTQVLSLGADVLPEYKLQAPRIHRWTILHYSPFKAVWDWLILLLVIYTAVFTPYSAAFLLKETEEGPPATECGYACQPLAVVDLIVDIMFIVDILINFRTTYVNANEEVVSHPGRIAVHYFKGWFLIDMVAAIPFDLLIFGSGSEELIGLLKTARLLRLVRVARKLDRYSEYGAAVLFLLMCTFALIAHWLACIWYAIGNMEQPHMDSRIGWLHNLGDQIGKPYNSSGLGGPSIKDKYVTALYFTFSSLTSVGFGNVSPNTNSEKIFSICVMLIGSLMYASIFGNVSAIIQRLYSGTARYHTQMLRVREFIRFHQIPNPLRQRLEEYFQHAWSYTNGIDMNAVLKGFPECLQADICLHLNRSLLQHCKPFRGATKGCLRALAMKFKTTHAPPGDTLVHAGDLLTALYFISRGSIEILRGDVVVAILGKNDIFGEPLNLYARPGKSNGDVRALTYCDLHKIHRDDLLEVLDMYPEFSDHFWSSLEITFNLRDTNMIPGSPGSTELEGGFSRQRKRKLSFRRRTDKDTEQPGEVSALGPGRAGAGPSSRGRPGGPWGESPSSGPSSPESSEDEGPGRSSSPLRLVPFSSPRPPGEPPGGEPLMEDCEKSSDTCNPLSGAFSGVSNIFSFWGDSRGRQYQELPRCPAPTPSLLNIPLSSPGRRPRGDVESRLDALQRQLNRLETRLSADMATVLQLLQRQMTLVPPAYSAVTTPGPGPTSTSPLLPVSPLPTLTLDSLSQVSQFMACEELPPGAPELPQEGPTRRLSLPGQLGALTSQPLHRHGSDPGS

[8] = Microsomal stability in rat liver microsome assessed as half life measured up to 24 hrs by LC-MS/MS analysis; type: ADME; settings: liver microsomes
Cytochrome P450 2D6 = Cytochrome P450 2D6 (Homo sapiens, UniProt P10635); assay: Inhibition of recombinant human CYP2D6 by LC-MS/MS analysis; type: ADME
Chain of Cytochrome P450 2D6 (P10635 whole entry): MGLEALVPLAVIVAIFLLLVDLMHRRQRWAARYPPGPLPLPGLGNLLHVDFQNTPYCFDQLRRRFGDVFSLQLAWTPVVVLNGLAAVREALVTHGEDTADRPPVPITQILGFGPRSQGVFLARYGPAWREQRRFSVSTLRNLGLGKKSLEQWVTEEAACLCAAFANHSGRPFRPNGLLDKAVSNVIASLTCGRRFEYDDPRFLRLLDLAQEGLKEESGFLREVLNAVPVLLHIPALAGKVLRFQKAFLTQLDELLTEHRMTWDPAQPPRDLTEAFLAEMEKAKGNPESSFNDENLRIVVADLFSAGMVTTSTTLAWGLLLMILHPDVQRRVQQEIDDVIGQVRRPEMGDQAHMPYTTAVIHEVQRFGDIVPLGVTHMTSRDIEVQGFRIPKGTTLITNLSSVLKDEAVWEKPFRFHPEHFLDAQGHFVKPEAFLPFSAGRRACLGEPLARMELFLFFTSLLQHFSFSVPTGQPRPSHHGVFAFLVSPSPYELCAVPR

[9] = AUC(0 to 24 hrs) in nude mouse at 2 mg/kg, po measured up to 24 hrs by LC-MS/MS analysis; type: ADME, organism-based; parameters: route oral, dose 2 mg/kg, time <=24; settings: in vivo
[10] = Solubility of the compound in FaSSIF using amorphous form of sample by LC-MS/MS analysis; type: physicochemical
Cytochrome P450 3A4 [11] = biological target: T2, Cytochrome P450 3A4 (Homo sapiens, UniProt P08684); assay: Inhibition of recombinant human CYP3A4 using testosterone as substrate by LC-MS/MS analysis; type: ADME
T2 sequence (P08684 whole entry): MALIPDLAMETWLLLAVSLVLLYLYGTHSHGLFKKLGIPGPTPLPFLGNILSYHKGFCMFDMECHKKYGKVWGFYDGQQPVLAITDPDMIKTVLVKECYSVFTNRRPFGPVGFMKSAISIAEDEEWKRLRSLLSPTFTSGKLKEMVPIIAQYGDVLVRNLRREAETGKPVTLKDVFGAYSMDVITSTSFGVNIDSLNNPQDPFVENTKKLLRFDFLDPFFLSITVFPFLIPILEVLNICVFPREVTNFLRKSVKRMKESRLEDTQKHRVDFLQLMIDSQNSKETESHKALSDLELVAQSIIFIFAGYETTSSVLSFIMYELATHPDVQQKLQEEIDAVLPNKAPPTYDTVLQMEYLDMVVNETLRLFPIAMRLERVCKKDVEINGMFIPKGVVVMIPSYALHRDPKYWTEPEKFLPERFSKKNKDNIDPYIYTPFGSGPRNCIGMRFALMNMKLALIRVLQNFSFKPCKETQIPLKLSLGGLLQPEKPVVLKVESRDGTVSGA

[12] = Microsomal stability in dog liver microsome assessed as half life measured up to 24 hrs by LC-MS/MS analysis; type: ADME, Canis lupus familiaris; settings: liver microsomes
[13] = Clearance in Beagle dog at 1 mg/kg, iv measured up to 24 hrs by LC-MS/MS analysis; type: ADME, organism-based, Canis lupus familiaris; settings: in vivo
Cytochrome P450 3A4 [14] = biological target: T2, Cytochrome P450 3A4; assay: Inhibition of recombinant human CYP3A4 using midazolam as substrate by LC-MS/MS analysis; type: ADME
[15] = Half life in Beagle dog at 0.5 mg/kg, po measured up to 24 hrs by LC-MS/MS analysis; type: ADME, organism-based, Canis lupus familiaris; settings: in vivo
[16] = Efflux ratio of apparent permeability across basolateral to apical side over apical to basolateral side in […] by LC-MS/MS analysis; type: ADME, cell-based
[17] = Apparent permeability of the compound across apical to basolateral side in […] measured up to 24 hrs by LC-MS/MS analysis; type: ADME, cell-based
[18] = Cmax in Sprague-Dawley rat at 2 mg/kg, po measured up to 24 hrs by LC-MS/MS analysis; type: ADME, organism-based; parameters: route oral, dose 2 mg/kg, time <=24; settings: in vivo
Cytochrome P450 2C9 = Cytochrome P450 2C9 (Homo sapiens, UniProt P11712); assay: Inhibition of recombinant human CYP2C9 by LC-MS/MS analysis; type: ADME
Chain of Cytochrome P450 2C9 (P11712 whole entry): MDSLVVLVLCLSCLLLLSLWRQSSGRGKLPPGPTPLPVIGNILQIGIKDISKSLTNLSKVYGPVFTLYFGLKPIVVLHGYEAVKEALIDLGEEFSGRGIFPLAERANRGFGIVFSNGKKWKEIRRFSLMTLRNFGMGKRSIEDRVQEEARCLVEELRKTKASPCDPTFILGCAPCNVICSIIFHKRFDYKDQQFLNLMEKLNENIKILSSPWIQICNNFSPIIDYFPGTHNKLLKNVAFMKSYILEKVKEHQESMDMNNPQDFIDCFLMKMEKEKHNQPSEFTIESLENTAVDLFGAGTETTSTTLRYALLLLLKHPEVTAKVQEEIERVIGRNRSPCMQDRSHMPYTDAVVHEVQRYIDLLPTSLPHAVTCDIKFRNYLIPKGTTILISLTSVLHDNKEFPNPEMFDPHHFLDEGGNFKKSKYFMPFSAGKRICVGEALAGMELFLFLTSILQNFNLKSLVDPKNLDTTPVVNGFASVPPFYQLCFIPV

Hepatitis B virus [19] = assay: Antiviral activity against HBV infected in C57BL/6 mouse assessed as reduction on HBsAg level at 3 to 30 mg/kg,po BID for 28 days by ELISA; type: functional, organism-based; settings: dose 3-30 mg/kg, time 28.0 day
[20] = Plasma protein binding in human by LC-MS/MS analysis; type: ADME, cell-free; settings: read-out: PPB (converted)
[21] = Cmax in nude mouse at 10 mg/kg, po measured up to 24 hrs by LC-MS/MS analysis; type: ADME, organism-based; parameters: route oral, dose 10 mg/kg, time <=24; settings: in vivo
[22] = Half life in nude mouse at 2 mg/kg, po measured up to 24 hrs by LC-MS/MS analysis; type: ADME, organism-based; settings: in vivo
[23] = Clearance in Sprague-Dawley rat at 1 mg/kg, iv measured up to 24 hrs by LC-MS/MS analysis; type: ADME, organism-based; settings: in vivo
[24] = Microsomal stability in human liver microsome assessed as half life measured up to 24 hrs by LC-MS/MS analysis; type: ADME; settings: liver microsomes
[25] = AUC(0 to 24 hrs) in nude mouse at 10 mg/kg, po measured up to 24 hrs by LC-MS/MS analysis; type: ADME, organism-based; parameters: route oral, dose 10 mg/kg, time <=24; settings: in vivo
[26] = AUC(0 to 24 hrs) in Sprague-Dawley rat at 2 mg/kg, po measured up to 24 hrs by LC-MS/MS analysis; type: ADME, organism-based; parameters: route oral, dose 2 mg/kg, time <=24; settings: in vivo
[27] = Cmax in Beagle dog at 0.5 mg/kg, po measured up to 24 hrs by LC-MS/MS analysis; type: ADME, organism-based, Canis lupus familiaris; parameters: route oral, dose 0.5 mg/kg, time <=24; settings: in vivo
Hepatitis B virus [28] = assay: Antiviral activity against HBV infected in C57BL/6 mouse assessed as HBV DNA reduction at 3 to 30 mg/kg,po BID for 28 days by qPCR method; type: functional, organism-based; settings: dose 3-30 mg/kg, time 28.0 day
[29] = Plasma protein binding in rat by LC-MS/MS analysis; type: ADME, cell-free; settings: read-out: PPB (converted)
[30] = Half life in nude mouse at 100 mg/kg, po measured up to 24 hrs by LC-MS/MS analysis; type: ADME, organism-based; settings: in vivo
[31] = Microsomal stability in mouse liver microsome assessed as half life measured up to 24 hrs by LC-MS/MS analysis; type: ADME; settings: liver microsomes
[32] = Plasma protein binding in dog by LC-MS/MS analysis; type: ADME, cell-free, Canis lupus familiaris; settings: read-out: PPB (converted)
[33] = Apparent permeability of the compound across basolateral to apical side in […] measured up to 24 hrs by LC-MS/MS analysis; type: ADME, cell-based
[34] = Plasma protein binding in mouse by LC-MS/MS analysis; type: ADME, cell-free; settings: read-out: PPB (converted)
[35] = AUC(0 to 24 hrs) in nude mouse at 100 mg/kg, po measured up to 24 hrs by LC-MS/MS analysis; type: ADME, organism-based; parameters: route oral, dose 100 mg/kg, time <=24; settings: in vivo
[36] = Cmax in nude mouse at 2 mg/kg, po measured up to 24 hrs by LC-MS/MS analysis; type: ADME, organism-based; parameters: route oral, dose 2 mg/kg, time <=24; settings: in vivo
[37] = Solubility of the compound in phosphate buffer at pH 7.4 using amorphous form of sample by LC-MS/MS analysis; type: physicochemical
[38] = biological target: Core antigen (Hepatitis B virus) (UniProt Q03732); assay: Modulation of capsid assembly in HBV infected in human HepG2.2.15 cells assessed as maximal inhibition of viral DNA replication preincubated for 3 days followed by replacement with fresh medium containing compound and measured after 3 day by qPCR analysis; type: cell-based; settings: filed as modulator, time 6.0 day
Chain of Core antigen (Hepatitis B virus) (Q03732 as listed by the source): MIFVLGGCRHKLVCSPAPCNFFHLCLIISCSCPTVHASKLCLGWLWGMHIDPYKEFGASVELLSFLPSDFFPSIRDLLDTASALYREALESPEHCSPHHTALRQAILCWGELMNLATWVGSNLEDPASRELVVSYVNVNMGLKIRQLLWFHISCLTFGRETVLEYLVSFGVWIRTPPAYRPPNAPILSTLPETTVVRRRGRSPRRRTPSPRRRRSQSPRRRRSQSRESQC

Hepatitis B virus [39] = assay: Antiviral activity against HBV infected in C57BL/6 mouse assessed as reduction on HBeAg level at 400 mg/kg,po BID for 28 days by ELISA; type: functional, organism-based; settings: time 28.0 day
Hepatitis B virus [40] = assay: Antiviral activity against HBV infected in C57BL/6 mouse assessed as reduction on HBsAg level at 400 mg/kg,po BID for 28 days by ELISA; type: functional, organism-based; settings: time 28.0 day
Hepatitis B virus [41] = assay: Antiviral activity against HBV infected in C57BL/6 mouse assessed as reduction on HBeAg level at 10 mg/kg,po BID for 28 days by ELISA; type: functional, organism-based; settings: time 28.0 day
Hepatitis B virus [42] = assay: Antiviral activity against HBV infected in C57BL/6 mouse assessed as reduction on HBsAg level at 10 mg/kg,po BID for 28 days by ELISA; type: functional, organism-based; settings: time 28.0 day

## C[C@H]1Cn2ncc(C(=O)N[C@H](C)C(F)(F)F)c2CN1C(=O)Nc1ccc(F)c(C#N)c1
HepG2 2.2.15
  CC50: > 100 µM

## C[C@H]1Cn2cnc(C(=O)N[C@H](C)C(F)(F)F)c2CN1C(=O)Nc1ccc(F)c(C#N)c1
[1]
  clearance: 5.3 mL/min/kg
[2]
  AUC: 9.01 µg/mL/h
[3]
  Cmax: 22200 ng/mL
Hepatitis B virus [4]
  Activity: inactive
Cytochrome P450 1A2
  IC50: > 30 µM
[5]
  logD: 2.27
Cytochrome P450 2C19
  IC50: > 30 µM
HepG2 2.2.15
  CC50: > 100 µM
[6]
  half-life: 3.38 h
[7]
  IC50: > 30 µM
[8]
  half-life: > 1.12 h
Cytochrome P450 2D6
  IC50: > 30 µM
[9]
  AUC: 7.16 µg/mL/h
[10]
  solubility: 1640 µM (≈ 718 µg/mL)
Cytochrome P450 3A4 [11]
  IC50: > 30 µM
[12]
  half-life: > 2.32 h
[13]
  clearance: 1.1 mL/min/kg
Cytochrome P450 3A4 [14]
  IC50: > 30 µM
[15]
  half-life: 30.8 h
[16]
  efflux ratio: 4.73
[17]
  Papp A→B at 24 h: 10.9 ×10⁻⁶ cm/s
[18]
  Cmax: 597 ng/mL
Cytochrome P450 2C9
  IC50: > 30 µM
Hepatitis B virus [19]
  Activity: inactive
[20]
  fraction unbound: 0.113
[21]
  Cmax: 4600 ng/mL
[22]
  half-life: 5.04 h
[23]
  clearance: 4.5 mL/min/kg
[24]
  half-life: > 2.32 h
[25]
  AUC: 24.4 µg/mL/h
[26]
  AUC: 7.98 µg/mL/h
[27]
  Cmax: 559 ng/mL
Hepatitis B virus [28]
  Activity: Dose-Dependent Effect
[29]
  fraction unbound: 0.244
[30]
  half-life: 4.97 h
[31]
  half-life: > 2 h
[32]
  fraction unbound: 0.23
[33]
  Papp B→A at 24 h: 51.4 ×10⁻⁶ cm/s
[34]
  fraction unbound: 0.12
[35]
  AUC: 28.9 µg/mL/h
[36]
  Cmax: 1120 ng/mL
[37]
  solubility: 106 µM (≈ 46.5 µg/mL)

## C[C@H]1Cn2ncc(C(=O)N[C@H](C)C(F)(F)F)c2CN1C(=O)Nc1ccc(F)c(F)c1
HepG2 2.2.15
  CC50: > 100 µM

## C[C@H]1Cn2cnc(C(=O)N[C@H](C)C(F)(F)F)c2CN1C(=O)Nc1ccc(F)c(F)c1
HepG2 2.2.15
  CC50: 60.9 µM

## C[C@H]1CN(C(=O)Nc2ccc(F)c(F)c2)Cc2c(C(=O)N[C@H](C)C(F)(F)F)ncn21
HepG2 2.2.15
  Activity: inactive
[38]
  Emax: 60%

## O=C(Nc1cc(F)c(F)c(F)c1)c1ccc(F)c(S(=O)(=O)N2CCC(O)CC2)c1
Hepatitis B virus [39]
  Activity: inactive
Hepatitis B virus [40]
  Activity: inactive

## C[C@H](NS(=O)(=O)c1cc(C(=O)Nc2ccc(F)c(C#N)c2)n(C)c1)C(F)(F)F
Hepatitis B virus [41]
  Activity: inactive
Hepatitis B virus [42]
  Activity: inactive
